Legend:
[1] = tested on: anaesthetised guinea pigs; assay: Test A: Primary electrophysiological effects in anaesthetised guinea pigs (MAP duration); assay type: in vivo, guinea pig; details: infusion into jugular vein, MAP duration at 75 percent repolarization during pacing, from mean dose-response curve
Procedure: Primary Electrophysiological Effects in Anaesthetised Guinea Pigs
Guinea pigs weighing between 500 and 1000 g were used. The animals were housed for at least one week before the experiment and had free access to food and tap water during that period.
Anaesthesia was induced by an intraperitoneal injection of pentobarbital (50 to 60 mg/kg) and catheters were introduced into one carotid artery (for blood pressure recording and blood sampling) and into one jugular vein (for drug infusions). Needle electrodes were placed on the limbs for recording of ECGs (lead II). […]
The left ventricular epicardium was exposed by a left-sided thoracotomy, and a custom-designed suction electrode for recording of the monophasic action potential (MAP) was applied to the left ventricular free wall. The electrode was kept in position as long as an acceptable signal could be recorded, otherwise it was moved to a new position. […]
Of the numerous variables measured in this analysis, three were selected as the most important for comparison and selection of active compounds. […] Systolic and diastolic blood pressure were measured in order to judge the haemodynamic status of the anaesthetised animal. […]
The mean of the two control recordings was set to zero and the effects recorded after consecutive doses of test substance were expressed as percentage changes from this value. […]

HERG channel = target: T1, HERG channel (Homo sapiens, UniProt Q12809); assay: Test B: Rb+-efflux assay for detection of HERG channel blockers; assay type: cell-based; details: depolarisation-induced Rb+-efflux from Chinese hamster ovary cells stably expressing the HERG-channel
T1 construct: expressed in transfected cells
Procedure: Rb^+-Efflux Assay for Detection of HERG Channel Blockers
The human ether-a-go-go related gene (HERG) encodes the voltage-gated K^+ channel underlying the cardiac rapid delayed rectifier current IKr. The IC50 value for HERG channel blockade was determined using a high throughput functional assay based on depolarisation-induced Rb^+-efflux from Chinese hamster ovary cells stably expressing the HERG-channel.
Cells were grown in Ham F12 (Life Technologies 31765-027) supplemented with 10% FBS and 0.6 mg/mL hygromycin B and were routinely passaged twice-weekly. For experimental studies, cells were plated at a density of 15,000 cells/well in Falcon, 384-well tissue culture-treated black-walled clear-bottomed plates and were thereafter incubated overnight at 37° C. in a cell culture incubator.
Following incubating overnight, cell plates were washed and a Rb^+-Load buffer (a physiological buffer containing Rb^+) was added. Cell plates were then incubated for 3 hours and were thereafter washed. Following this wash, the test compounds were added. The cell plates were then incubated for another 10 minutes and, following this incubation period, external K^+ concentration was increased in order to depolarize the cells and activate HERG channels. […]
Compound activity was expressed as: […]

T1 sequence (Q12809 whole entry): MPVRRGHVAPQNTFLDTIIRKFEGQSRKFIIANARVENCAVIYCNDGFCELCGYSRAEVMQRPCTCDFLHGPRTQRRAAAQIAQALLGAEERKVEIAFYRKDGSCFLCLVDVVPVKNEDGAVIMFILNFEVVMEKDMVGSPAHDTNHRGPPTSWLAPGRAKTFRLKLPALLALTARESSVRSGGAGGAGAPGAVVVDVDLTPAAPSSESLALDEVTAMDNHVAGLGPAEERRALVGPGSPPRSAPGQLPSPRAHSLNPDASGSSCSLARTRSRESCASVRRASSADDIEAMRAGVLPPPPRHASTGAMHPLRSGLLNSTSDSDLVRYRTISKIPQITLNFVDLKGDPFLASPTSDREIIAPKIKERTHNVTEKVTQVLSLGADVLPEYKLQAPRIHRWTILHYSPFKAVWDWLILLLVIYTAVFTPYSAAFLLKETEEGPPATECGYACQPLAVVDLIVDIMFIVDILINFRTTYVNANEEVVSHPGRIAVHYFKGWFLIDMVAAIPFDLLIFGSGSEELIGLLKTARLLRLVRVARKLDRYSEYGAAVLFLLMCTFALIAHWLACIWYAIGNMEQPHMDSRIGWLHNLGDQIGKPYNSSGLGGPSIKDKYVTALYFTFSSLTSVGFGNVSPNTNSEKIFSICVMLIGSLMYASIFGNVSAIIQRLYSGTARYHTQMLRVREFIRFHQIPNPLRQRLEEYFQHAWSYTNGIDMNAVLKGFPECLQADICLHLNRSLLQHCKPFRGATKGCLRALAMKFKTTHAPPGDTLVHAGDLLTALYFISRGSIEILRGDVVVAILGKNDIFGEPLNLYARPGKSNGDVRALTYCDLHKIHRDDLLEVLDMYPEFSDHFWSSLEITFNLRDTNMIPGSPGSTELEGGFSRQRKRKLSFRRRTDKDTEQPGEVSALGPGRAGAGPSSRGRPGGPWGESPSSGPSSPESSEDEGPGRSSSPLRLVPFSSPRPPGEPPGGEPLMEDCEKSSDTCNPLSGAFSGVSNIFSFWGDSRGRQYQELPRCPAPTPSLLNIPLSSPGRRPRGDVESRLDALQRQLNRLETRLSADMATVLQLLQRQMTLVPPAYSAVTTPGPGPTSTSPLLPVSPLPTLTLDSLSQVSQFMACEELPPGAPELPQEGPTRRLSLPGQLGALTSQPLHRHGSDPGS

CC(C)(C)OC(=O)NCCN1CC2CN(CCOc3ccc(C#N)cc3F)CC(C1)O2 [Example 2, tert-Butyl (2-{7-[2-(4-cyano-2-fluorophenoxy)ethyl]-9-oxa-3,7-diazabicyclo-[3.3.1]non-3-yl}ethyl)carbaamate]
D10 (cumulative dose prolonging the MAP duration by 10% from the baseline; index of class III electrophysiological potency) [1]: 6.3 | pIC50 for HERG channel blockade (HERG channel): 5.0

CC(C)(C)OC(=O)NCCCN1CC2CN(CCCOc3ccc(C#N)cc3)CC(C1)O2 [Example 5]
D10 (cumulative dose prolonging the MAP duration by 10% from the baseline; index of class III electrophysiological potency) [1]: 6.8 | pIC50 for HERG channel blockade (HERG channel): 6.19

— US7928225B2, “Oxabispidine compounds for the treatment of cardiac arrhythmias” (AstraZeneca AB, priority 2005, dated 2011)
